Measurements: patent US20100240611A1, “METHODS FOR PREPARING DPP-IV INHIBITOR COMPOUNDS” (priority 2009, published 2010)

Target: T1, DPP-IV (Homo sapiens, UniProt P27487)
T1 construct: in an in vivo protocol study in humans; from tissue; host or cells: human subjects (in vivo)
Test: in vivo protocol study in humans: selectivity of DPP-IV inhibition over other dipeptidyl peptidases
Settings: other dipeptidyl peptidases named in the block: DPP-VII, DPP-VIII, DPP-IX, FAP

T1 sequence (P27487 whole entry): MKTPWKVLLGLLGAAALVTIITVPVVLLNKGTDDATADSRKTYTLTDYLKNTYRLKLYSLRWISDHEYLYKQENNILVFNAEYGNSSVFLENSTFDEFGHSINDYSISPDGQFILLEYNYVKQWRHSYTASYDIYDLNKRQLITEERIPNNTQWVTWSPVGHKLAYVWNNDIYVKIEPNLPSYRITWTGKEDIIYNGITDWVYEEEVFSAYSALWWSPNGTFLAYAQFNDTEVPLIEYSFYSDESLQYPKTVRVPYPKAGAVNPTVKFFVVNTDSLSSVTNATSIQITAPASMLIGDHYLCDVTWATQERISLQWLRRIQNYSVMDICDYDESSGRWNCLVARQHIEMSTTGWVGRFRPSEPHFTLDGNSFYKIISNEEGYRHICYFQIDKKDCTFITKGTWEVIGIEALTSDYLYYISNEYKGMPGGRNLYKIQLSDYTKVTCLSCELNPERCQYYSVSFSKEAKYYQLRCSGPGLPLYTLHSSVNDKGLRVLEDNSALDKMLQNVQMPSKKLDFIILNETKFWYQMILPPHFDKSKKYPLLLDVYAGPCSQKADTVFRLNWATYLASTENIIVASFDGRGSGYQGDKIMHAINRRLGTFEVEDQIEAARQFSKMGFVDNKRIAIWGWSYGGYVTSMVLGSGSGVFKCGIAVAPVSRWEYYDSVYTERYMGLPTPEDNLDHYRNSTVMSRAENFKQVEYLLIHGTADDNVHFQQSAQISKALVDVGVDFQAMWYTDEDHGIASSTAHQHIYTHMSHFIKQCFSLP

`O=C(CN[C@@H]1CCNC1)N1CCC[C@H]1B(O)O` [compound of formula (I), dutogliptin] was tested, and the “selectivity for inhibition of DPP-IV over the other amino dipeptidyl peptidases” value was “maintained selectivity for inhibition of DPP-IV over the other amino dipeptidyl peptidases”.
